Where “and” joins values, the source holds several entries; their conditions need not be identical. Equal entries are not always repeated. Entries after “also recorded” stand apart in the source; their conditions may differ. Where two headings read alike, the source gives them in different places.

This series is described as follows: Tissue analysis (internal tissue dose of parent PFAS, bioconcentration factor). The format is in vivo, Danio rerio. The conditions noted are these: for Parent compound in fish tissue at 6 dpf: Study 1, daily exposure 0–5 dpf; for Bioaccumulation ranking: among chemicals assessed, from BCF values; for BCFdry: 6-d zebrafish assay; for concentration at 6 dpf: zebrafish (Danio rerio), whole larvae (pools of 10, homogenised), other: waterborne exposure in the well medium, 6 dpf larvae, dry weight 44 μg per larva, read-out: Measured tissue dose; for Dil Corrected Reported Conc. (fMole/larvae), measured tissue concentration: zebrafish larvae, replicate samples per experiment/plate. As for the experimental part: Zebrafish were exposed to 25.1, 44.8, or 80.0μM ADONA, PFOA, PFESA1, or PFHxA, 14.0, 25.1, or 44.8μM PFHxS, or 1.0, 1.8, or 3.1μM PFOS, or 0.4% DMSO. The highest concentration evaluated was the no observed effect concentration (NOEC) determined in Study 1. In Study 2, zebrafish were exposed to 25.1, 44.8, or 80.0μM GenX Free Acid or 0.4% DMSO. According to the previously described microtiter plate inclusion criterion, 15/15 plates were included in the study. Larvae were anesthetized by rapid cooling in chilled 10% HBSS. Groups of 10 anesthetized larvae were pooled to comprise one biological replicate ( n=4 ) in 500μL of 10% HBSS, flash frozen in liquid nitrogen, and stored at −80°C . In the case of ADONA, n=5 .
Tissue samples were prepared by protein precipitation. Flash frozen samples, consisting of pools of ten 6-dpf zebrafish larvae, were homogenized using ∼100mg of 1.0-mm diameter zirconia/silica beads and a Fast-Prep-24™ homogenizer (MP Biomedicals) in 100μL 0.1M formic acid fortified with the surrogate (i.e., PFNA). Protein was precipitated from the homogenate with 400μL of acetonitrile containing internal standards and separated by centrifugation at 14,000 rpm for 15 min at 4°C. Fifty microliters of the extract was diluted with 200μL aqueous 0.4 mM ammonium formate in the LC vial for analysis. Standards and samples were analyzed with Vanquish UPLC and Orbitrap Fusion mass spectrometer (Thermo Electron) operated in negative ESI mode. ESI source conditions were optimized for the [M-H]^− ion of PFAS as follows: spray voltage −3.5 kV , sheath gas 25 au (arbitrary units), aux gas 6 au, sweep gas 0 au, ion transfer tube temperature 300°C, and vaporizer temperature […]. High-resolution accurate mass (HRAM) MS1 scans were collected with the following parameters: detector type orbitrap, orbitrap resolution 30,000 full width at half maximum (FWHM), normal mass range, Use quadrapole isolation=true , scan range 70–700m/z , radio frequency (RF) lens 60%, automatic gain control (AGC) target 4.00×10^5 , max injection time of 50 ms , 1 microscan, data type set to profile, negative polarity, and source fragmentation disabled. Data-dependent orbitrap MSMS (ddMS2-OT) scans were collected for the [M-H]^− ion [ M-H-CO2 for GenX]^– using a target mass list for the eight PFAS and PFNA surrogate for identity confirmation. The apex detection was set to an expected peak width of 2 s at FWHM and desired apex peak window of 30%. The dynamic exclusion parameters were set to exclude after a one-time, 60-s exclusion duration, low and high mass tolerances of 10 ppm , and exclude isotope was set to true. The intensity threshold for collecting an MSMS scan was set to 2.5E+04 . Fragmentation was done by high-energy collisional dissociation (HCD). The ddMS2-OT scans were collected with the following parameters: orbitrap isolation mode, isolation window of 1.6m/z , isolation offset off, stepped HCD collision energy of 30%±10% , scan range of auto mass-to-charge ratio normal, orbitrap resolution of 30,000 FWHM, first mass 75m/z , max injection time of […], AGC target 5.00×10^4 , inject ions from available parallelizable time set to true, max injection time of 54 ms, 1 microscan, and data type set to centroid. UPLC separation was achieved using ACQUITY UPLC BEH C18 Column, 130Å , 1.7μM , 2.1mm×50mm (Waters Corp P/N 186,002,350) at 50°C with gradient elution at a flow rate of 300μL/min using 0.4 mM ammonium formate in acetonitrile and water with a 10-μL injection. Data collection, integration, calibration, and quantitation were performed using Xcalibur software (version 4.1; Thermo Electron). Concentration for each PFAS analyte was determined by internal standard technique using isotopically labeled internal standards and matrix-matched calibration standards. Quantitative analysis was performed using high-resolution MS1-extracted ion chromatograms. […]

Setting [1] is: nominal 25.1 μM daily 0–5 dpf, 0.4% DMSO.
Setting [2] is: nominal 44.8 μM daily 0–5 dpf, 0.4% DMSO.
[3] abbreviates: nominal 80.0 μM daily 0–5 dpf, 0.4% DMSO.

In the case of `O=C(O)C(F)(F)C(F)OC(F)(F)C(F)(F)C(F)(F)OC(F)(F)F` (centres unmarked) [ADONA, 4,8-Dioxa-3H-perfluorononanoate], the “Bioaccumulation ranking” value is “least bioaccumulative”. Under “0.4% DMSO”, the “Parent compound in fish tissue at 6 dpf” value was “detectable levels”. For the same compound, for the setting “nominal 25.1 μM, 0.4% DMSO”, the BCFdry turned out to be 0.95 L/kg. Besides, for the setting “nominal 44.8 μM, 0.4% DMSO”, the BCFdry stood at 0.94 L/kg. The BCFdry (nominal 80.0 μM, 0.4% DMSO) was 0.56 L/kg. Besides, the concentration at 6 dpf under setting [1] was determined as 9490 ± 3100 ng/g. In addition, the concentration at 6 dpf under setting [2] came to 16000 ± 6290 ng/g. Under setting [3], the concentration at 6 dpf is 14900 ± 3110 ng/g. Moreover, the “Dil Corrected Reported Conc. (fMole/larvae), measured tissue concentration” value (exposure Concentration 25.1 µM) is 687.994 fMole/larvae and 814.543 fMole/larvae and 1674.31 fMole/larvae and 986.423 fMole/larvae and 1056.18 fMole/larvae. Besides, the “Dil Corrected Reported Conc. (fMole/larvae), measured tissue concentration” value (exposure Concentration 44.8 µM) was 1721.39 fMole/larvae and 1579.99 fMole/larvae and 1307.54 fMole/larvae and 1119.74 fMole/larvae and 3082.15 fMole/larvae. For the same compound, the “Dil Corrected Reported Conc. (fMole/larvae), measured tissue concentration” value (exposure Concentration 80 µM) was 1324.81 fMole/larvae and 2040.26 fMole/larvae and 1665.47 fMole/larvae and 1967.75 fMole/larvae and 1175.25 fMole/larvae.
Consider `O=C(O)C(F)(OC(F)(F)C(F)(F)C(F)(F)F)C(F)(F)F` (centres unmarked) [GenX Free Acid, Perfluoro-2-propoxypropanoic acid], for which the “Parent compound in larval zebrafish tissue” value (GenX Free Acid diluted in DI water (Study 2)) was “detectable levels; also recorded: detectable in zebrafish tissue”. For the same compound, the “Parent compound in zebrafish tissue at 6 dpf” value (GenX Free Acid diluted in DMSO (Study 1)) is reported as “undetectable”. Moreover, the BCFdry came to 0.45 L/kg (nominal 25.1 μM in DI water (Study 2)), 0.29 L/kg (nominal 44.8 μM in DI water (Study 2)) and 0.49 L/kg (nominal 80.0 μM in DI water (Study 2)). Besides, the concentration at 6 dpf reads like this: (nominal 25.1 μM in DI water (Study 2) daily 0–5 dpf) 2480 ± 660 ng/g; (nominal 44.8 μM in DI water (Study 2) daily 0–5 dpf) 2020 ± 270 ng/g; (nominal 80.0 μM in DI water (Study 2) daily 0–5 dpf) 5110 ± 1490 ng/g.
As to `O=S(=O)(O)C(F)(F)C(F)(F)OC(F)(C(F)(F)F)C(F)(F)OC(F)=C(F)F` (centres unmarked) [PFESA1, Perfluoro-3,6-dioxa-4-methyl-7-octene-1-sulfonic acid], the “Bioaccumulation ranking” value is “least bioaccumulative”. Moreover, under “0.4% DMSO”, the “Parent compound in fish tissue at 6 dpf” value is recorded as “detectable levels”. Besides, the BCFdry (nominal 25.1 μM, 0.4% DMSO) was found to be 3.09 L/kg. Moreover, the BCFdry (nominal 44.8 μM, 0.4% DMSO) is 2.62 L/kg. Moreover, where the note is “nominal 80.0 μM, 0.4% DMSO”, the BCFdry is reported as 1.44 L/kg. In addition, under setting [1], the concentration at 6 dpf came to 23700 ± 17500 ng/g. Further, under setting [2], the concentration at 6 dpf came out at 37000 ± 17400 ng/g. Under setting [3], the concentration at 6 dpf is 43200 ± 4840 ng/g. The “Dil Corrected Reported Conc. (fMole/larvae), measured tissue concentration” value (exposure Concentration 25.1 µM) was 4.79E+03 fMole/larvae and 1603 fMole/larvae and 2911 fMole/larvae and 78 fMole/larvae. Besides, the “Dil Corrected Reported Conc. (fMole/larvae), measured tissue concentration” value (exposure Concentration 44.8 µM) is 2778 fMole/larvae and 2495 fMole/larvae. The “Dil Corrected Reported Conc. (fMole/larvae), measured tissue concentration” value (exposure Concentration 80 µM) is 3514 fMole/larvae and 4409 fMole/larvae.
For the compound `O=C(O)C(F)(F)C(F)(F)C(F)(F)C(F)(F)C(F)(F)F` [PFHxA, Perfluorohexanoic acid], the “Bioaccumulation ranking” value is on record as “least bioaccumulative”. Moreover, under “nominal 25.1 μM, 0.4% DMSO”, the BCFdry came out at 0.46 L/kg. Also, the BCFdry (nominal 44.8 μM, 0.4% DMSO) came to 0.18 L/kg. For the setting “nominal 80.0 μM, 0.4% DMSO”, the BCFdry amounted to 0.24 L/kg. The concentration at 6 dpf under setting [1] was 4970 ± 4400 ng/g. Also, the concentration at 6 dpf under setting [2] stood at 3280 ± 560 ng/g. The concentration at 6 dpf under setting [3] amounted to 8770 ± 4310 ng/g. The “Dil Corrected Reported Conc. (fMole/larvae), measured tissue concentration” value (exposure Concentration 25.1 µM) is 643.192 fMole/larvae and 1721.28 fMole/larvae and 198.739 fMole/larvae and 224.57 fMole/larvae. Besides, the “Dil Corrected Reported Conc. (fMole/larvae), measured tissue concentration” value (exposure Concentration 44.8 µM) is 344.178 fMole/larvae and 504.145 fMole/larvae and 437.515 fMole/larvae and 553.638 fMole/larvae. Besides, the “Dil Corrected Reported Conc. (fMole/larvae), measured tissue concentration” value (exposure Concentration 80 µM) was 1323.26 fMole/larvae and 776.14 fMole/larvae and 638.759 fMole/larvae and 2174.95 fMole/larvae.
Turning to `O=S(=O)(O)C(F)(F)C(F)(F)C(F)(F)C(F)(F)C(F)(F)C(F)(F)F` [PFHxS, Perfluorohexanesulfonic acid], the BCFdry turned out to be 11.82 L/kg (nominal 14.0 μM, 0.4% DMSO); 8.01 L/kg (nominal 25.1 μM, 0.4% DMSO); 9.30 L/kg (nominal 44.8 μM, 0.4% DMSO). Also, the concentration at 6 dpf stood at 107000 ± 50100 ng/g (nominal 14.0 μM daily 0–5 dpf, 0.4% DMSO); 129000 ± 31500 ng/g under setting [1]; 261000 ± 57200 ng/g under setting [2]. Further, the “Dil Corrected Reported Conc. (fMole/larvae), measured tissue concentration” value is 8.83E+03 fMole/larvae and 1.94E+04 fMole/larvae and 6.95E+03 fMole/larvae and 7.88E+03 fMole/larvae (exposure Concentration 14 µM); 1.35E+04 fMole/larvae and 1.76E+04 fMole/larvae and 8.93E+03 fMole/larvae and 1.16E+04 fMole/larvae (exposure Concentration 25.1 µM); 2.76E+04 fMole/larvae and 3.50E+04 fMole/larvae and 2.15E+04 fMole/larvae and 2.07E+04 fMole/larvae (exposure Concentration 44.8 µM).
Take `O=C(O)C(F)(F)C(F)(F)C(F)(F)C(F)(F)C(F)(F)C(F)(F)C(F)(F)F` [PFOA, Perfluoro-n-octanoic acid]: the “Parent compound in fish tissue at 6 dpf” value (0.4% DMSO) is “detectable levels”. The BCFdry runs as follows: (nominal 25.1 μM, 0.4% DMSO) 11.68 L/kg; (nominal 44.8 μM, 0.4% DMSO) 6.52 L/kg; (nominal 80.0 μM, 0.4% DMSO) 5.17 L/kg. Moreover, the concentration at 6 dpf by setting is: under setting [1], 116000 ± 25200 ng/g; under setting [2], 124000 ± 29900 ng/g; under setting [3], 171000 ± 41100 ng/g. For the same compound, the “Dil Corrected Reported Conc. (fMole/larvae), measured tissue concentration” value runs as follows: (exposure Concentration 25.1 µM) 16735.5 fMole/larvae and 10378.2 fMole/larvae and 12074.8 fMole/larvae and 10012 fMole/larvae; (exposure Concentration 44.8 µM) 10919.7 fMole/larvae and 9223.5 fMole/larvae and 16062.6 fMole/larvae and 16554.8 fMole/larvae; (exposure Concentration 80 µM) 21852.9 fMole/larvae and 22967.7 fMole/larvae and 14850.1 fMole/larvae and 12804.3 fMole/larvae.

The record behind these values is article PMC7228129, “Evaluation of Developmental Toxicity, Developmental Neurotoxicity, and Tissue Dose in Zebrafish Exposed to GenX and Other PFAS” (Environmental Health Perspectives, 2020).
